Assay results reported in patent US20240148821A1, “PHARMACEUTICAL USE OF CYCLIC PEPTIDE COMPOUND” (CHUGAI SEIYAKU KABUSHIKI KAISHA, priority 2021, published 2024).
Bridge positions count the residues as written; N and C are the ends. Square brackets hold non-standard residues; d marks the D form. Peptide text beside a SMILES is read from it. * marks the point of attachment. NMeAbu(3,3-F2-piperidino) = CN[C@@H](CCN1CCCC(F)(F)C1)C(=O)O; hPhe(3-Cl-4-CF3) = N[C@@H](CCc1ccc(C(F)(F)F)c(Cl)c1)C(=O)O; hPhe(3-OMe-4-CF3) = COc1cc(CC[C@H](N)C(=O)O)ccc1C(F)(F)F; NMePhe(4-CF3) = CN[C@@H](Cc1ccc(C(F)(F)F)cc1)C(=O)O; hPhe(4-CF3) = N[C@@H](CCc1ccc(C(F)(F)F)cc1)C(=O)O; NMeAbu(4,4,4-F3) = CN[C@@H](CC(F)(F)F)C(=O)O; NMePhe(4-Cl) = CN[C@@H](Cc1ccc(Cl)cc1)C(=O)O; NMePhe(4-Me) = CN[C@@H](Cc1ccc(C)cc1)C(=O)O; NMeGly(cPent) = CN[C@H](C(=O)O)C1CCCC1; Phe(3-I) = N[C@@H](Cc1cccc(I)c1)C(=O)O; Phe(2-Me) = Cc1ccccc1C[C@H](N)C(=O)O; NMeCha = CN[C@@H](CC1CCCCC1)C(=O)O; NMeChg = CN[C@H](C(=O)O)C1CCCCC1; NMeD = CN[C@@H](CC(=O)O)C(=O)O; NMeL = CN[C@@H](CC(C)C)C(=O)O; NMeV = CN[C@H](C(=O)O)C(C)C; d(β3hA) = C[C@@H](N)CC(=O)O; Pip = O=C(O)[C@@H]1CCCCN1; Iva = CC[C@](C)(N)C(=O)O; NMeA = CN[C@@H](C)C(=O)O; NMeAib = CNC(C)(C)C(=O)O; Piperidide = C1CCN(*)CC1; Pyrrolidide = C1CCN(*)C1; Ac5c = NC1(C(=O)O)CCCC1; Aze = O=C(O)[C@@H]1CCN1; NBuGly = CCCCNCC(=O)O; Sar = CNCC(=O)O

System: Human pancreatic cancer cell line AsPC-1 (G12D mutation Kras)
Assay: AsPC-1 cell growth inhibition (AsPC-1 CGI)
Type: cell-based
Details: read-out: AsPC-1 cell growth inhibition, 50% growth inhibitory concentration (IC50 value); 96 hours, CellTiter-Glo, values classified in ranges
Protocol: Test compounds were serially dilated with dimethyl sulfoxide, and 200 nL was then dispensed to a U-bottom 96-well plate using Labcyte Echo. […] The cell suspension was dispensed to a. plate containing a test compound at 100 μL per well and incubated at 37° C. in a 5% carbon dioxide gas incubator. 96 hours later, 80 μL of CellTiter-Glo (Promega) was added to each well and fluorescence was measured.

Row | Structure (SMILES) | IC50 [µM]
1 | CC[C@H](C)[C@@H]1NC(=O)[C@H](CC(C)C)N(C)C(=O)C[C@@H](C(=O)N2CCCCC2)N(C)C(=O)[C@H](CC(C)C)NC(=O)C(C)(C)N(C)C(=O)[C@H](Cc2ccccc2C)NC(=O)[C@H](Cc2cccc(I)c2)NC(=O)CN(C)C(=O)[C@H](Cc2ccc(C)cc2)N(C)C(=O)[C@@H]2CCN2C(=O)CN(C)C1=O [Compound 335] ([NMeL]I[Sar][Aze][NMePhe(4-Me)][Sar][Phe(3-I)][Phe(2-Me)][NMeAib]L[NMeD]-Piperidide; lactam N-11) | > 0.5
2 | CC[C@H](C)[C@@H]1NC(=O)[C@H](CC(F)(F)F)N(C)C(=O)C[C@@H](C(=O)N2CCCC2)N(C)C(=O)[C@H](C2CCCCC2)N(C)C(=O)C2(CCCC2)NC(=O)[C@@H]2CCCN2C(=O)[C@H](CCc2ccc(C(F)(F)F)c(Cl)c2)NC(=O)CN(C)C(=O)[C@H](Cc2ccc(C(F)(F)F)cc2)N(C)C(=O)CN(C)C(=O)CN(C)C1=O [Compound 245] ([NMeAbu(4,4,4-F3)]I[Sar][Sar][NMePhe(4-CF3)][Sar][hPhe(3-Cl-4-CF3)]P[Ac5c][NMeChg][NMeD]-Pyrrolidide; lactam N-11) | ≤ 0.02
3 | CC[C@H](C)[C@@H]1NC(=O)[C@H](CC(C)C)N(C)C(=O)C[C@@H](C(=O)N2CCCCC2)N(C)C(=O)[C@H](CC(C)C)NC(=O)C(C)(C)N(C)C(=O)[C@H](Cc2ccccc2)NC(=O)[C@H](Cc2cccc(I)c2)NC(=O)CN(C)C(=O)[C@H](Cc2ccc(C)cc2)N(C)C(=O)[C@@H]2CCN2C(=O)[C@H](C)N(C)C1=O [Compound 1015] ([NMeL]I[NMeA][Aze][NMePhe(4-Me)][Sar][Phe(3-I)]F[NMeAib]L[NMeD]-Piperidide; lactam N-11) | > 0.5
4 | CC[C@H](C)[C@@H]1NC(=O)[C@H](CC(C)C)N(C)C(=O)C[C@@H](C(=O)N2CCCCC2)N(C)C(=O)[C@H](C2CCCCC2)N(C)C(=O)C2(CCCC2)NC(=O)[C@@H]2CCCCN2C(=O)[C@H](CCc2ccc(C(F)(F)F)c(Cl)c2)NC(=O)CN(C)C(=O)[C@H](CC2CCCCC2)N(C)C(=O)CN(C)C(=O)CN(C)C1=O [Compound 728] ([NMeL]I[Sar][Sar][NMeCha][Sar][hPhe(3-Cl-4-CF3)][Pip][Ac5c][NMeChg][NMeD]-Piperidide; lactam N-11) | > 0.5
5 | CCCCN1CC(=O)N(C)[C@@H](CC2CCCCC2)C(=O)N(C)CC(=O)N[C@@H](CCc2ccc(C(F)(F)F)c(Cl)c2)C(=O)N2CCC[C@H]2C(=O)NC2(CCCC2)C(=O)N(C)[C@@H](C(C)C)C(=O)N[C@H](C)CC(=O)N(C)[C@@H](CC(C)C)C(=O)N[C@@H]([C@@H](C)CC)C(=O)N(C)CC1=O [Compound 1033] (cyclo([Ac5c][NMeV][d(β3hA)][NMeL]I[Sar][NBuGly][NMeCha][Sar][hPhe(3-Cl-4-CF3)]P)) | > 0.5
6 | CC[C@H](C)[C@@H]1NC(=O)[C@H](C)N(C)C(=O)C[C@@H](C(=O)N2CCCCC2)N(C)C(=O)[C@H](C(C)C)N(C)C(=O)C2(CCCC2)NC(=O)[C@H](CCN2CCCC(F)(F)C2)N(C)C(=O)[C@H](CCc2ccc(C(F)(F)F)c(Cl)c2)NC(=O)CN(C)C(=O)[C@H](CC2CCCCC2)N(C)C(=O)[C@@H]2CCN2C(=O)[C@H](C)N(C)C1=O [Compound 682] ([NMeA]I[NMeA][Aze][NMeCha][Sar][hPhe(3-Cl-4-CF3)][NMeAbu(3,3-F2-piperidino)][Ac5c][NMeV][NMeD]-Piperidide; lactam N-11) | > 0.5
7 | CC[C@H](C)[C@@H]1NC(=O)[C@H](CC(C)C)N(C)C(=O)C[C@@H](C)NC(=O)[C@H](C(C)C)N(C)C(=O)[C@](C)(CC)NC(=O)[C@@H]2CCCN2C(=O)[C@H](CCc2ccc(C(F)(F)F)c(Cl)c2)NC(=O)CN(C)C(=O)[C@H](CC2CCCCC2)N(C)C(=O)CN(C)C(=O)CN(C)C1=O [Compound 149] (cyclo(I[Sar][Sar][NMeCha][Sar][hPhe(3-Cl-4-CF3)]P[Iva][NMeV][d(β3hA)][NMeL])) | > 0.5
8 | CC[C@H](C)[C@@H]1NC(=O)[C@H](CC(C)C)N(C)C(=O)C[C@@H](C(=O)N2CCCCC2)N(C)C(=O)[C@H](C2CCCC2)N(C)C(=O)C2(CCCC2)NC(=O)[C@@H]2CCCN2C(=O)[C@H](CCc2ccc(C(F)(F)F)c(OC)c2)NC(=O)CN(C)C(=O)[C@H](CC2CCCCC2)N(C)C(=O)[C@@H]2CCN2C(=O)[C@H](C)N(C)C1=O [Compound 2080] ([NMeL]I[NMeA][Aze][NMeCha][Sar][hPhe(3-OMe-4-CF3)]P[Ac5c][NMeGly(cPent)][NMeD]-Piperidide; lactam N-11 (inferred); C-terminus assumed) | ≤ 0.02
9 | CC[C@H](C)[C@@H]1NC(=O)[C@H](C(C)C)N(C)C(=O)C[C@@H](C)NC(=O)[C@H](CC(C)C)N(C)C(=O)C2(CCCC2)NC(=O)[C@H](CC(C)C)N(C)C(=O)[C@H](CCc2ccc(C(F)(F)F)cc2)NC(=O)CN(C)C(=O)[C@H](Cc2ccc(Cl)cc2)N(C)C(=O)CN(C)C(=O)[C@@H]2CCN2C1=O [Compound 538] (cyclo([Ac5c][NMeL][d(β3hA)][NMeV]I[Aze][Sar][NMePhe(4-Cl)][Sar][hPhe(4-CF3)][NMeL])) | > 0.5
